Several values for one entry are separate records, joined by “and”; a condition that tells them apart may be missing. Identical values can stand only once.
How the values were obtained:
Assay type in all cases: cell-based
BRD2 [1] = biological target: T1, BRD2 (Homo sapiens, UniProt P25440); experiment: BRD2 levels by Western blot in Jurkat cells; set-up: endogenous in cells; host or cells: Jurkat; Hep G2; MDA-MB-231; KBM7 (WT, DCAF11 KO, DDB1 KO)
Description: (§1) Cells were washed with PBS and lysed in lysis buffer (50 mM Tris-HCl, pH 7.4, 150 mM NaCl, 1% Triton X-100, 1% sodium deoxycholate, 0.1% SDS) with complete protease inhibitor cocktail (Roche, 11836170001) for 30 min on ice. For Ramos cells, cell pellets were lysed in lysis buffer (50 mM Tris-HCl, pH 8, 150 mM NaCl, 1% NP-40, 0.5% sodium deoxycholate) with complete protease inhibitor cocktail. After centrifugation at 16,000 x g, the supernatant was transferred into a new tube and the protein concentration was determined by DC protein assay (BIO-RAD, 5000116). Proteins were separated by SDS-PAGE and transferred to a PVDF membrane (Thermo scientific, 0.45 μm, 88518). For PDEδ, BRD2, GAPDH, BRD4, Vinculin and BTK, the membranes were blocked with Intercept® Blocking Buffer (LI-COR Biosciences, 927-70001) at room temperature for 1 h. The primary antibodies for these proteins were diluted with Intercept® Blocking Buffer (1:500 for PDEδ, 1:3000 for Vinculin, and 1:1000 for other proteins) and incubated with the membranes overnight at 4 °C. Membranes were washed with PBS + 0.1% Tween 20 (PBS-T) five times and incubated with secondary antibodies conjugated to IRDye® Infrared Fluorescent Dyes (1:5000, LI-COR Biosciences) at room temperature for 1 h with protection from light. After washing the membrane, signals were visualized using the ChemiDoc MP Imaging System (BIO-RAD Laboratories). For detection of LC3B, BRD3, BLK, DCAF11, DDB1 RBX1, FIP200, V5- and FLAG-Tag the membranes were blocked with 5% milk in PBS-T at room temperature for 1 h. The primary antibodies for these proteins were diluted in 5% milk in PBS-T buffer (1:200 for BRD3, 1:1000 for other proteins) and incubated with the membranes overnight at 4 °C. Membranes were washed with PBS-T five times and incubated with HRP secondary antibodies (1:1500) at room temperature for 1 h. After washing the membrane, protein detection was performed using Western blotting detection reagent (Thermo Scientific, 34095) and the ChemiDoc MP Imaging System (BIO-RAD). Relative band intensities were quantified using Image Lab (BIO-RAD).

PDEδ = PDEδ (Homo sapiens, UniProt O43924); experiment: PDEδ levels by Western blot in Jurkat cells; set-up: endogenous in cells; host or cells: Jurkat; conditions: 6 h; for PDEδ degradation activity compared with degrader 5: 10 μM
[2] = Cell viability assay (CellTiter-Glo) in Jurkat cells; conditions: human, Jurkat cells
Description: (§2) Jurkat cells (3 × 10^3) and Hep G2 cells (3.5 × 10^3) were seeded in 96-well plates in 100 μL culture medium. Cells were treated with compounds dissolved in 50 μl medium at the indicated concentration for 72 h, at the same time, one plate of cells without compounds treatment was used for the cell count at time zero. After adding 40 μl of CellTiter-Glo® reagent (Promega, G7571) to each well for 10 min at room temperature, the luminescence was measured on a Spark® Multimode Microplate Reader (Tecan). The data was analyzed by the GraphPad Prism 9.0.

Jurkat cells = experiment: as above; conditions: for Relative cell viability (%): Jurkat cells, 72 h, Fig. 4k; for Cell viability (%) relative to DMSO: individual replicates, Supplementary Fig. 7g
Description: as §2

BRD2 [3] = biological target: T1, BRD2; experiment: BRD2 levels by Western blot in KBM7 cells (WT, DCAF11 knockout, DDB1 knockout); set-up: endogenous in cells; host or cells: KBM7 (WT, DCAF11 KO, DDB1 KO); conditions: 9 at 3 μM, 10 at 10 μM, 11 at 10 μM; 6 h
Description: as §1
DCAF11- or FIP200 (RB1CC1)-targeting sgRNAs were lentivirally packaged using PEI transfection of Lenti-X cells. The viral supernatant was harvested after 72 h, cleared of cellular debris by filtration through a 0.45-µm PES filter and stored in aliquots at −80 °C. The appropriate amount of viral supernatant was transduced into KBM7 cells (1 × 10^6 cells/mL) via spinfection (2000 rpm, 1 h, 37 °C) with polybrene (8 µg/mL). Two days post transduction, the cells were selected with puromycin (1 µg/mL) for a total of 5 days, after which the knockout pools were validated via western blotting.

T1 sequence (P25440 whole entry): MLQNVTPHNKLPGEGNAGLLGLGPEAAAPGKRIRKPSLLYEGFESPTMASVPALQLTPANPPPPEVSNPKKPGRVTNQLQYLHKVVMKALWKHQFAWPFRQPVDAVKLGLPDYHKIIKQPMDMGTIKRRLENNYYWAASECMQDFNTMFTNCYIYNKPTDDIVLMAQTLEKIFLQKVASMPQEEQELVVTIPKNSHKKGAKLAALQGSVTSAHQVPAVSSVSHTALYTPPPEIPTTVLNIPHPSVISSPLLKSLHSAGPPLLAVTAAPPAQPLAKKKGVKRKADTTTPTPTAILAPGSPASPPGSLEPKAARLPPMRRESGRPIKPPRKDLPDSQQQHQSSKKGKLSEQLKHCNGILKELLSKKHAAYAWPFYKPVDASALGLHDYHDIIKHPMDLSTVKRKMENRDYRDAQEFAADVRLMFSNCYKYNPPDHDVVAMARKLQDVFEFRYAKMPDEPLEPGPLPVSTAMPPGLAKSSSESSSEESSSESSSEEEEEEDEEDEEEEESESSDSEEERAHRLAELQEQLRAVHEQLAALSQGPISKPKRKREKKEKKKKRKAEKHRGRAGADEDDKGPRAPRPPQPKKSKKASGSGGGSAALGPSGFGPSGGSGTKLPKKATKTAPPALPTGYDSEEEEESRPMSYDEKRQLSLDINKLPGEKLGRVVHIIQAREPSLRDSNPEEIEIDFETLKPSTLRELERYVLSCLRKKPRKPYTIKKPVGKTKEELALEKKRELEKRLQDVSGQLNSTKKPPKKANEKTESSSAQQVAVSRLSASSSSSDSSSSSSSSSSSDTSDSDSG
PDEδ, sequence (O43924 whole entry): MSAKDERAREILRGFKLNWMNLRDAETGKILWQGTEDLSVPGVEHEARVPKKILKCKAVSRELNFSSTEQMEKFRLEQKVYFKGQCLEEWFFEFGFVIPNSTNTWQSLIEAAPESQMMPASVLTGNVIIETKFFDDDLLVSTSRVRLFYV

Cc1ncsc1-c1ccc(CNC(=O)[C@@H]2C[C@@H](O)CN2C(=O)[C@@H](NC(=O)COCCOCCOCCNC(=O)C[C@@H]2N=C(c3ccc(Cl)cc3)c3c(sc(C)c3C)-n3c(C)nnc32)C(C)(C)C)cc1 [MZ1, reference compound]
BRD2 levels after washout (BRD2 [1]; 10 μM, 5 h prior to washout): can be washed out

Cc1ccc(-n2nc3c(=O)n(CCCC(=O)NCCc4ccc(C(=O)NCCOCCOCCOCCOc5c(Br)cc(/C=C6\C(=O)Nc7ccc(I)cc76)cc5Br)cc4)nc(C)c3c2C)cc1 [Compound 6, (Z)-N-(2-(2-(2-(2-(2,6-dibromo-4-((5-iodo-2-oxoindolin-3-ylidene)methyl)phenoxy)ethoxy)ethoxy)ethoxy)ethyl)-4-(2-(4-(3,4-dimethyl-7-oxo-2-(p-tolyl)-2,7-dihydro-6H-pyrazolo[3,4-d]pyridazin-6-yl)butanamido)ethyl)benzamide]
remaining activity at 10 µM (PDEδ; Jurkat, DMSO pretreatment 2 h, then 10 μM, 6h, Fig. 1h, read-out: PDEδ/Vinculin intensity (relative to DMSO control group)): 55.4%

Cc1ccc(-n2nc3c(=O)n(CCCC(=O)NCCc4ccc(C(=O)NCCOCCOCCOCCOc5c(Br)cc(C=C6C(=O)N(c7ccccc7)c7ccccc76)cc5Br)cc4)nc(C)c3c2C)cc1 [Compound 55]
PDEδ degradation activity compared with degrader 5 (PDEδ): comparable or better degradation activity | completeness of PDEδ degradation (PDEδ): did not induce complete degradation

Cc1sc2c(c1C)C(c1ccc(Cl)cc1)=NC(CC(=O)NCCOCCOCCOCCOc1c(Br)cc(C=C3C(=O)N(c4ccccc4)c4ccccc43)cc1Br)c1nnc(C)n1-2 (stereo not drawn) [Compound 49]
remaining activity at 3 µM (BRD2 [1]; Jurkat, 6 h, 3 μM, 6 h, Fig. 4j, read-out: BRD2/Vinculin intensity (relative to DMSO control group)): 12.6%

Cc1sc2c(c1C)C(c1ccc(Cl)cc1)=N[C@@H](CC(=O)OC(C)(C)C)c1nnc(C)n1-2 [JQ1, reference compound]
viability at 72 h, 10 nmol/L ([2]; concentration 10 nmol/L, individual replicates, Supplementary Fig. 7g, read-out: Cell viability (%) relative to DMSO): 94.3% | viability at 72 h, 30 nmol/L ([2]; concentration 30 nmol/L, individual replicates, Supplementary Fig. 7g, read-out: Cell viability (%) relative to DMSO): 90.8% | viability at 72 h, 100 nmol/L ([2]; concentration 100 nmol/L, individual replicates, Supplementary Fig. 7g, read-out: Cell viability (%) relative to DMSO): 82.6% | viability at 72 h, 300 nmol/L ([2]; concentration 300 nmol/L, individual replicates, Supplementary Fig. 7g, read-out: Cell viability (%) relative to DMSO): 69% | viability at 72 h, 1000 nmol/L ([2]; concentration 1000 nmol/L, individual replicates, Supplementary Fig. 7g, read-out: Cell viability (%) relative to DMSO): 54.6% | viability at 72 h, 3000 nmol/L ([2]; concentration 3000 nmol/L, individual replicates, Supplementary Fig. 7g, read-out: Cell viability (%) relative to DMSO): 46% | viability at 72 h, 10000 nmol/L ([2]; concentration 10000 nmol/L, individual replicates, Supplementary Fig. 7g, read-out: Cell viability (%) relative to DMSO): 46.5% | viability at 72 h, 30000 nmol/L ([2]; concentration 30000 nmol/L, individual replicates, Supplementary Fig. 7g, read-out: Cell viability (%) relative to DMSO): 40.9% | viability at 72 h, 0.01 µM ([2]; 72 h, 10 nM, Fig. 4k, read-out: Relative cell viability (%)): 89.4% | viability at 72 h, 0.03 µM ([2]; 72 h, 30 nM, Fig. 4k, read-out: Relative cell viability (%)): 77.8% | viability at 72 h, 0.1 µM ([2]; 72 h, 100 nM, Fig. 4k, read-out: Relative cell viability (%)): 52.1% | viability at 72 h, 0.3 µM ([2]; 72 h, 300 nM, Fig. 4k, read-out: Relative cell viability (%)): 35% | viability at 72 h, 1 µM ([2]; 72 h, 1000 nM, Fig. 4k, read-out: Relative cell viability (%)): 18.1% | viability at 72 h, 3 µM ([2]; 72 h, 3000 nM, Fig. 4k, read-out: Relative cell viability (%)): 8.86% | viability at 72 h, 10 µM ([2]; 72 h, 10000 nM, Fig. 4k, read-out: Relative cell viability (%)): 4.59% | viability at 72 h, 30 µM ([2]; 72 h, 30000 nM, Fig. 4k, read-out: Relative cell viability (%)): 1.85% | Relative cell viability (%) (Jurkat cells; 10 nM, 0.01 µM): 100.371% and 106.106% | Relative cell viability (%) (Jurkat cells; 30 nM, 0.03 µM): 87.8283% and 96.2473% | Relative cell viability (%) (Jurkat cells; 100 nM, 0.1 µM): 64.4714% and 60.7516% | Relative cell viability (%) (Jurkat cells; 300 nM, 0.3 µM): 45.1617% and 37.3276% | Relative cell viability (%) (Jurkat cells; 1000 nM, 1 µM): 18.9902% and 17.7354% | Relative cell viability (%) (Jurkat cells; 3000 nM, 3 µM): 9.435% and 7.082% | Relative cell viability (%) (Jurkat cells; 10000 nM, 10 µM): 4.364% and 3.464% | Relative cell viability (%) (Jurkat cells; 30000 nM, 30 µM): 1.255% and 1.237% | Cell viability (%) relative to DMSO (Jurkat cells; concentration 10 nmol/L): 103.479% and 107.527% | Cell viability (%) relative to DMSO (Jurkat cells; concentration 30 nmol/L): 101.884% and 107.914% | Cell viability (%) relative to DMSO (Jurkat cells; concentration 100 nmol/L): 89.9727% and 100.534% | Cell viability (%) relative to DMSO (Jurkat cells; concentration 300 nmol/L): 75.4252% and 84.9435% | Cell viability (%) relative to DMSO (Jurkat cells; concentration 1000 nmol/L): 55.019% and 62.5193% | Cell viability (%) relative to DMSO (Jurkat cells; concentration 3000 nmol/L): 46.7418% and 50.7086% | Cell viability (%) relative to DMSO (Jurkat cells; concentration 10000 nmol/L): 42.9072% and 46.8783% | Cell viability (%) relative to DMSO (Jurkat cells; concentration 30000 nmol/L): 37.1426% and 41.0159% | BRD2 protein levels, ligands alone or in combination (BRD2 [1]; 3 μM, 4 h): did not reduce BRD2 protein levels

Cc1sc2c(c1C)C(c1ccc(Cl)cc1)=N[C@@H](CC(=O)NCCOCCOCCOCCOc1c(Br)cc(/C=C3\C(=O)Nc4ccc(I)cc43)cc1Br)c1nnc(C)n1-2 [Compound 11]
BRD2 degradation in DCAF11 knockout (KO1 and KO2) KBM7 cells (BRD2 [3]): abolished | efficiency of BRD2 degradation, 10 versus iodo analog 11 (BRD2 [1]; 6 h): comparable efficiency of BRD2 degradation

Cc1ccc(-n2nc3c(=O)n(CCCC(=O)NCCc4ccc(C(=O)NCCOCCOCCOCCOc5c(Br)cc(C=C6C(=O)Nc7cc(Br)ccc76)cc5Br)cc4)nc(C)c3c2C)cc1 [Compound 54]
PDEδ degradation activity compared with degrader 5 (PDEδ): comparable or better degradation activity | completeness of PDEδ degradation (PDEδ): did not induce complete degradation

— PMC10689823, “Discovery of a Drug-like, Natural Product-Inspired DCAF11 Ligand Chemotype” (Nature Communications, 2023)
